Assay results from article PMC3197222 (Journal of the American Chemical Society, 2009).
“Also recorded” adds a separate entry of the source.

How the values were obtained:
[1] = tested on: DNase; experiment: SPR imaging of phage-displayed DNase-1 adsorption; format: binding; conditions: phage-displayed DNase-1, 2.5 nM phage wrapped in 2.5 µM polymer 1 in PBS (Figure S2)
[2] = tested on: DNase; experiment: Phage-based ELISA of phage-displayed DNase ligands; format: binding; conditions: for binding to DNase, unwrapped phage-displayed ligand: absence of 1-ext wrapper, versus M13-KO7 phage; for binding affinity and specificity for DNase, phage-displayed: phage-based ELISA (Figure 5); for binding to DNase, wrapped phage-displayed ligand: wrapped with 1-ext (2.5 µM), versus M13-KO7 phage control
[3] = tested on: DNase; conditions: selected with Lys18-wrapped phage library; ref [15]; cited from earlier work

Sequence	SPR imaging binding to DNase [1]	binding to DNase, unwrapped phage-displayed ligand [2]	binding affinity and specificity for DNase, phage-displayed [2]	binding to DNase, wrapped phage-displayed ligand [2]	DNase ligand (previous report) [3]
RWCLSELSG [DNase-1]	binds well to the target DNase	stronger binding to DNase than the negative control M13-KO7 phage	moderate to high affinity binding and specificity for DNase	bound with higher affinity to DNase than the M13-KO7 phage control	–
EEWYCLRQGTFETLFF [DNase-2]	–	stronger binding to DNase than the negative control M13-KO7 phage	moderate to high affinity binding and specificity for DNase	bound with higher affinity to DNase than the M13-KO7 phage control, with DNase-2 having much greater apparent affinity; also recorded: strong binding to DNase was retained	–
EEWYCLRQGTFETLYCFW [DNase-L]	–	–	–	–	DNase ligand
